This note sets out measurements from ChEMBL document CHEMBL3734744, “Synthesis, 3D pharmacophore, QSAR and docking studies of novel quinazoline derivatives with nitric oxide release moiety as preferential COX-2 inhibitors” (Medchemcomm, 2015).

The test system of one series is Serum. Description: Induction of nitric oxide release in rat serum by Griess assay. Format: functional. (The Griess reaction detects nitrite, a stable product of nitric oxide.)
For series [1], the system named is Rattus norvegicus. Description: Gastrointestinal toxicity in Wistar albino rat assessed as ulcer index at 10 mg/kg/day, po administered for 3 days measured after 2 hrs post last dose. The note with it: in vivo. Format: organism-based.
The test system of series [2] is Rattus norvegicus. Description: Antiinflammatory activity in Sprague-Dawley rat assessed as inhibition of carrageenan-induced paw edema at 80 mg/kg, po administered 30 mins prior to carrageenan challenge measured at 2 hrs by plethysmometer. The format is functional. Background: In the carrageenan paw model, swelling and tenderness develop within hours.
Series [3] has as its system Rattus norvegicus. As to the kind of experiment: Antiinflammatory activity in Sprague-Dawley rat assessed as inhibition of carrageenan-induced paw edema at 80 mg/kg, po administered 30 mins prior to carrageenan challenge measured at 1 hr by plethysmometer. Format: functional.
Series [4] relates to Rattus norvegicus. As to the kind of experiment: Antiinflammatory activity in Sprague-Dawley rat assessed as inhibition of carrageenan-induced paw edema at 80 mg/kg, po administered 30 mins prior to carrageenan challenge measured at 3 hrs by plethysmometer. Format: functional.
The species entered for the next series is Ovis aries. Description: Selectivity index, ratio of IC50 for ovine COX1 to IC50 for ovine COX2.
Series [5] concerns the target T1, Prostaglandin G/H synthase 1 (Ovis aries, UniProt P05979).
T1 sequence (P05979 whole entry): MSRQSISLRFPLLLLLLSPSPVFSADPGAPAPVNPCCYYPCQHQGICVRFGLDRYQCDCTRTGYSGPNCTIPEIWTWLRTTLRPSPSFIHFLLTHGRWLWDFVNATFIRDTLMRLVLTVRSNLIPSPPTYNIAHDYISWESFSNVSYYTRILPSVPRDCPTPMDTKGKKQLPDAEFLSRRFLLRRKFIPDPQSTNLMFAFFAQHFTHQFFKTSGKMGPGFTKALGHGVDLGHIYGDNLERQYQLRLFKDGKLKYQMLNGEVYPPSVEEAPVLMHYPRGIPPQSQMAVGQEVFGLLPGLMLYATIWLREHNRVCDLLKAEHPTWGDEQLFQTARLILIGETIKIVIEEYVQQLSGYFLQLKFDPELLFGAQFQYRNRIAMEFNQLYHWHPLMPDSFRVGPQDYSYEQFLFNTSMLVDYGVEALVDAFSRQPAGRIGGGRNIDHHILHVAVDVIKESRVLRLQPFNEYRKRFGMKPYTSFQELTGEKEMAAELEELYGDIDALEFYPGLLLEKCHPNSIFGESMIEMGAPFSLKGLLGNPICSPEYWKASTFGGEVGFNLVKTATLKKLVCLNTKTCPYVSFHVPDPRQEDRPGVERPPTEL
Description: Inhibition of ovine COX1 after 5 mins by enzyme immuno assay.

The test system of series [6] is Rattus norvegicus. Description: Antiinflammatory activity in Sprague-Dawley rat assessed as inhibition of carrageenan-induced paw edema at 80 mg/kg, po administered 30 mins prior to carrageenan challenge measured at 3 hrs by plethysmometer relative to meloxicam. The format is functional.
In series [7] the test system is Rattus norvegicus. Description: Gastrointestinal toxicity in Wistar albino rat assessed as ulceration at 10 mg/kg/day, po administered for 3 days measured after 2 hrs post last dose by haematoxylin/eosin staining-based microscopic analysis. The format is organism-based. The note with it: in vivo.
Series [8] addresses T2, Prostaglandin G/H synthase 2 (Ovis aries, UniProt P79208).
T2 sequence (P79208 whole entry): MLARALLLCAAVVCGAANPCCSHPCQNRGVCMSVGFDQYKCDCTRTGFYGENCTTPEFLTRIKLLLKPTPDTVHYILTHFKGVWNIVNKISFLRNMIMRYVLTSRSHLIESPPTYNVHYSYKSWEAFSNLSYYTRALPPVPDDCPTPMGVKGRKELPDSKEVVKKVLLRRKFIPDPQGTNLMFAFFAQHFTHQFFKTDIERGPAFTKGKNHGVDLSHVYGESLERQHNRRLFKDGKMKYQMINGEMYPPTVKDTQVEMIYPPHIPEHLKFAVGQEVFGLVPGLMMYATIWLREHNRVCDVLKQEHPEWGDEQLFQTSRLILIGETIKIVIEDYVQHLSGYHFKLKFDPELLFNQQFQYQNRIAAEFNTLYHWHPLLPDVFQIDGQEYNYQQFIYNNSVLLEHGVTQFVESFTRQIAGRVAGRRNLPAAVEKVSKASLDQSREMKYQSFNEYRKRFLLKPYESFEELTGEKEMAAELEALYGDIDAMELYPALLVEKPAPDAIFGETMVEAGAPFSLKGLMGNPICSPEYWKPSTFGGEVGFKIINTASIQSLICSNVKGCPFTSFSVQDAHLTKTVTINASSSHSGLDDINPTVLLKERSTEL
Description: Inhibition of ovine COX2 after 5 mins by enzyme immuno assay.

The subject of series [9] is Rattus norvegicus. Description: Gastrointestinal toxicity in Wistar albino rat assessed as ulceration at 5 mg/kg/day, po administered for 3 days measured after 2 hrs post last dose by haematoxylin/eosin staining-based microscopic analysis. As to conditions: in vivo. Format: organism-based.
In series [10] the test system is Rattus norvegicus. Description: Gastrointestinal toxicity in Wistar albino rat assessed as ulcer index at 5 mg/kg/day, po administered for 3 days measured after 2 hrs post last dose. The format is organism-based. The note with it: in vivo.
Series [11] relates to Rattus norvegicus. Description: Gastrointestinal toxicity in Wistar albino rat assessed as irregular mucosa at 5 mg/kg/day, po administered for 3 days measured after 2 hrs post last dose by haematoxylin/eosin staining-based microscopic analysis. Format: organism-based. The note with it: in vivo.
In series [12] the test system is Rattus norvegicus. As to the kind of experiment: Gastrointestinal toxicity in Wistar albino rat assessed as intact mucosa at 10 mg/kg/day, po administered for 3 days measured after 2 hrs post last dose by haematoxylin/eosin staining-based microscopic analysis. The format is organism-based. As to conditions: in vivo.
Series [13] has as its system Rattus norvegicus. Description: Gastrointestinal toxicity in Wistar albino rat assessed as mild erosion at 10 mg/kg/day, po administered for 3 days measured after 2 hrs post last dose by haematoxylin/eosin staining-based microscopic analysis. The format is organism-based. As to conditions: in vivo.

As for `Cc1ccc(S(=O)(=O)Nn2c(CO[N+](=O)[O-])nc3ccccc3c2=O)cc1`, the results for the Activity in the series with Serum and in the series with Rattus norvegicus [7] were 10.4 µmol/L and “Toxic”, respectively. Also, the UI in the series on Rattus norvegicus [1] is 1. Further, the inhibition in vivo – broadly, the percentage by which the read-out fell short of the control – at 80 mg/kg in the series with Rattus norvegicus [2] was determined as 15.7%; with Rattus norvegicus [3], 6.4%; in the series with Rattus norvegicus [4], 44.3%; with Rattus norvegicus [6] it was 71.6%. In the series listed under Ovis aries, the Ratio IC50 is 3.32. Besides, the IC50 (usually the concentration needed to halve the response being measured) came to 38.8 µM in series [5] and 11.7 µM in series [8].

Turning to `Cc1nc2ccccc2c(=O)n1NC(=O)NC1CCCCC1`, the inhibition in vivo at 80 mg/kg in the series with Rattus norvegicus [2] is 41.9%; with Rattus norvegicus [3], 12%; in the series on Rattus norvegicus [4] it was 54.8%; in the series on Rattus norvegicus [6], 88.6%. Also, in the series filed under Ovis aries, the Ratio IC50 amounted to 4.74. The IC50 in series [5] is 23.8 µM; in [8] it was 5 µM.

In the case of `Cc1nc2ccccc2c(=O)n1NC(=S)Nc1ccccc1`, the inhibition in vivo at 80 mg/kg with Rattus norvegicus [2] is 42.9%; with Rattus norvegicus [3] it was 14.4%; with Rattus norvegicus [4], 61.9%; in the series on Rattus norvegicus [6] it was 100%. Also, the Ratio IC50 in the series listed under Ovis aries stood at 5.13. Besides, the values for the IC50 in series [5] and in [8] were 18.9 µM and 3.67 µM, respectively.

For the molecule `Cc1ccc(S(=O)(=O)Nn2c(C)nc3ccccc3c2=O)cc1`, the inhibition in vivo at 80 mg/kg with Rattus norvegicus [2] is 24.2%; in the series with Rattus norvegicus [3] it was 3.2%; with Rattus norvegicus [4] it was 51.9%; in the series on Rattus norvegicus [6] it was 83.9%. Further, the Ratio IC50 in the series filed under Ovis aries came out at 5.67. The IC50 in series [5] turned out to be 32.7 µM; in [8] it was 5.75 µM.

For the molecule `Cc1cnc(NC(=O)C2=C(O)c3ccccc3S(=O)(=O)N2C)s1` [MELOXICAM], the UI in the series on Rattus norvegicus [1] came out at 0.6. Moreover, the inhibition in vivo at 80 mg/kg in the series with Rattus norvegicus [2] came to 43.4%; in the series with Rattus norvegicus [3], 20.8%; in the series on Rattus norvegicus [4] it was 61.9%. Moreover, the Activity entry in the series with Rattus norvegicus [7] was “Toxic”.

`CC(=O)Nc1ccc(S(=O)(=O)Nn2c(C)nc3ccccc3c2=O)cc1`: the inhibition in vivo at 80 mg/kg was 37.4% in the series with Rattus norvegicus [2], 20.8% in the series on Rattus norvegicus [3], 59.2% in the series with Rattus norvegicus [4] and 95.7% in the series with Rattus norvegicus [6]. Moreover, the Ratio IC50 in the series listed under Ovis aries came to 5.16. For the same molecule, the IC50 was determined as 22.8 µM in series [5] and 4.41 µM in series [8].

Regarding `COc1ccc2c(c1)c(CC(=O)O)c(C)n2C(=O)c1ccc(Cl)cc1` [INDOMETHACIN], the Activity entry in the series on Rattus norvegicus [9] and in the series with Rattus norvegicus [11] was “Toxic” in each case. In addition, in the series with Rattus norvegicus [10], the UI was determined as 1.8.

As for `Cc1nc2ccccc2c(=O)n1NC(=O)NC(C)(C)C`, the inhibition in vivo at 80 mg/kg turned out to be 29.8% in the series with Rattus norvegicus [2], 10.4% with Rattus norvegicus [3], 51% with Rattus norvegicus [4] and 82.5% in the series on Rattus norvegicus [6]. The Ratio IC50 in the series listed under Ovis aries turned out to be 5.28. The figures for the IC50 in [5] and in series [8] were 34.5 µM and 6.53 µM, respectively.

Take `O=C(Nc1ccccc1)Nn1c(CO[N+](=O)[O-])nc2ccccc2c1=O`: the results for the Activity in the series on Serum and with Rattus norvegicus [7] were 22.8 µmol/L and “Non-toxic”, respectively. In addition, the UI with Rattus norvegicus [1] is 0.6. Also, the inhibition in vivo at 80 mg/kg was 25.8% with Rattus norvegicus [2], 6.4% with Rattus norvegicus [3], 51.3% in the series with Rattus norvegicus [4] and 82.9% with Rattus norvegicus [6]. Besides, the Ratio IC50 in the series listed under Ovis aries came out at 4.11. In addition, the IC50 was determined as 24.4 µM in series [5] and 5.93 µM in [8].

With `CC(=O)Nc1ccc(S(=O)(=O)Nn2c(CO[N+](=O)[O-])nc3ccccc3c2=O)cc1`, the Activity in the series on Serum is 7.9 µmol/L; in the series on Rattus norvegicus [7], “Toxic”. In addition, the UI in the series with Rattus norvegicus [1] worked out at 1.3. Moreover, the inhibition in vivo at 80 mg/kg was 40.4% in the series on Rattus norvegicus [2], 15.2% with Rattus norvegicus [3], 64.8% in the series with Rattus norvegicus [4] and > 100% in the series with Rattus norvegicus [6]. For the same molecule, in the series filed under Ovis aries, the Ratio IC50 is 6.72. The IC50 in series [5] is 24.1 µM; in series [8], 3.59 µM.

`O=C(NC1CCCCC1)Nn1c(CO[N+](=O)[O-])nc2ccccc2c1=O`: the figures for the Activity in the series on Serum and in the series on Rattus norvegicus [12] were 28.53 µmol/L and “Non-toxic”, respectively. In the series with Rattus norvegicus [1], the UI was 0.4. Also, the inhibition in vivo at 80 mg/kg with Rattus norvegicus [2] is 18.7%; in the series on Rattus norvegicus [3], 8%; with Rattus norvegicus [4], 49.9%; in the series on Rattus norvegicus [6], 80.6%. The Ratio IC50 in the series filed under Ovis aries amounted to 5.03. Besides, the IC50 in series [5] was 34.6 µM; in series [8] it was 6.86 µM.

In the case of `O=c1c2ccccc2nc(CO[N+](=O)[O-])n1NS(=O)(=O)c1ccccc1`, the results for the Activity in the series on Serum and in the series on Rattus norvegicus [7] were 16.73 µmol/L and “Non-toxic”, respectively. The UI in the series with Rattus norvegicus [1] is listed as 0.5. Moreover, the inhibition in vivo at 80 mg/kg amounted to 11.6% in the series on Rattus norvegicus [2], 2.4% in the series on Rattus norvegicus [3], 34% in the series with Rattus norvegicus [4] and 55% in the series on Rattus norvegicus [6]. Also, the Ratio IC50 in the series filed under Ovis aries was 2.41. For the same molecule, the IC50 was found to be 98.6 µM in series [5] and 42.1 µM in [8].

Take `CC(C)(C)NC(=O)Nn1c(CO[N+](=O)[O-])nc2ccccc2c1=O`: the Activity in the series with Serum is 10.76 µmol/L; in the series on Rattus norvegicus [13] it was “Toxic”. Moreover, in the series with Rattus norvegicus [1], the UI stood at 0.9. In addition, the inhibition in vivo at 80 mg/kg with Rattus norvegicus [2] is 14.1%; with Rattus norvegicus [3] it was 6.4%; in the series on Rattus norvegicus [4], 43.7%; in the series on Rattus norvegicus [6], 70.6%. The Ratio IC50 in the series listed under Ovis aries was determined as 3.57. The 50% inhibitory concentration (IC50) is 44.6 µM in series [5] and 12.5 µM in series [8].

In the case of `Cc1nc2ccccc2c(=O)n1NS(=O)(=O)c1ccccc1`, the inhibition in vivo at 80 mg/kg worked out at 22.2% in the series on Rattus norvegicus [2], 5.6% in the series with Rattus norvegicus [3], 47.8% in the series on Rattus norvegicus [4] and 77.2% with Rattus norvegicus [6]. Besides, the Ratio IC50 in the series listed under Ovis aries amounted to 3.5. Further, the results for the 50% inhibitory concentration (IC50) in series [5] and in series [8] were 30.1 µM and 8.58 µM, respectively.
